We go through 5 compounds from patent US4711902A, “Medicament formulation” (Bayer Aktiengesellschaft, priority 1983, dated 1987).

The conditions of data set [1]: lipid content 20% by weight, room temperature.
Excerpt: Ester mixture A: a glycerol triesters of caprylic acid (70%) and capric acid (30%)
Ester mixture D: 50% soy bean oil and 50% glycerol triesters of caprylic acid (70%) and capric acid (30%)
For data set [2] the following is noted: lipid content 20%, room temperature.
Where [3] appears, read: Ester mixture A (glycerol triesters of caprylic acid 70% and capric acid 30%).
Setting [4] is: Ester mixture B (propylene glycol diesters of caprylic acid 75% and capric acid 25%).
[5] abbreviates: Ester mixture C (75% glycerol triesters, 12.5% diesters, 12.5% monoesters of caprylic/capric acid).
Where [6] appears, read: Ester mixture D (50% soy bean oil and 50% glycerol triesters of caprylic acid 70% and capric acid 30%).

Like-named read-outs stand apart in the source and are kept apart here.

As to `COC(=O)C1=C(C)NC(C)=C(C(=O)OCC(C)C)C1c1ccccc1[N+](=O)[O-]` (stereo not shown) [Nisoldipine], the “Solubility of the medicament in the emulsion” value (“Solubility of the medicament” for short) in data set [1] (setting [3]) is 0.14 % (W/W); in data set [1] (setting [4]), 0.18 % (W/W); in data set [1] (setting [5]), 0.20 % (W/W); in data set [1] (setting [6]), 0.08 % (W/W); in data set [1] (Soy bean oil), 0.04 % (W/W).

As for `CCCOC(=O)Cc1ccc(OCC(=O)N(CC)CC)c(OC)c1` [Propanidide], in data set [1] (Soy bean oil), the “Solubility of the medicament” value is 2.80 % (W/W).

As for `CCOC(=O)C1=C(C)NC(C)=C(C(=O)OC)C1c1cccc([N+](=O)[O-])c1` (stereo not shown) [Nitrendipine], the “Solubility of the medicament” value is recorded as 0.08 % (W/W) in data set [1] (setting [3]); 0.12 % (W/W) in data set [1] (setting [4]); 0.14 % (W/W) in data set [1] (setting [5]); 0.05 % (W/W) in data set [1] (setting [6]); 0.03 % (W/W) in data set [1] (Soy bean oil).

Consider `CC(c1ccc(Cl)c(Cl)c1)N1N=C(N)CC1=O` (stereo not shown) [Muzolimine], for which the “Solubility of the medicament” value in data set [1] (setting [3]) is 0.06 % (W/W); in data set [1] (setting [4]), 0.06 % (W/W); in data set [1] (setting [5]), 0.32 % (W/W); in data set [1] (setting [6]) it was 0.02 % (W/W); in data set [1] (Soy bean oil) it was 0.01 % (W/W).

In the case of `COCCOC(=O)C1=C(C)NC(C)=C(C(=O)OC(C)C)C1c1cccc([N+](=O)[O-])c1` (stereo not shown) [Nimodipine], the “Solubility of nimodipine in soy bean oil emulsion” value in data set [2] (benzyl alcohol 0% W/W) was 0.04%; in data set [2] (benzyl alcohol 2% W/W), 0.08%; in data set [2] (benzyl alcohol 4% W/W) it was 0.16%; in data set [2] (benzyl alcohol 5% W/W) it was 0.18%. The “Solubility of the medicament” value was 0.16 % (W/W) in data set [1] (setting [3]); 0.26 % (W/W) in data set [1] (setting [4]); 0.50 % (W/W) in data set [1] (setting [5]); 0.08 % (W/W) in data set [1] (setting [6]); 0.04 % (W/W) in data set [1] (Soy bean oil).
